{"source": "patent US7652061B2", "about": "“N-acyl nitrogen heterocycles as ligands of peroxisome proliferator-activated receptors” (Novartis A.G., priority 2003, dated 2010)", "key": {"[1]": {"target": "T1, hPPARα ligand binding domain (GST-hPPARα LBD) (Homo sapiens, UniProt Q07869)", "T1 construct": "made in house; host or cells: E. coli BL21(DE3), pGEX vector", "T1 sequence (Q07869 167-468)": "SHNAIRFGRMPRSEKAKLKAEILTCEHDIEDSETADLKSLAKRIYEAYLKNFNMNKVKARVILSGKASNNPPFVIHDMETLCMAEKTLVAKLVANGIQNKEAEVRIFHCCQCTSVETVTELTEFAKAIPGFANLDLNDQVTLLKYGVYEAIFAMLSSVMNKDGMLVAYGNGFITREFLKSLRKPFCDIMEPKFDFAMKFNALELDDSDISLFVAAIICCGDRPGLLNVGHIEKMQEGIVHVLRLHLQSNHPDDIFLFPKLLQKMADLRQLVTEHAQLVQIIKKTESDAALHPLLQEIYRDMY", "test": "PPARα functional binding assay (CARLA, TR-FRET)", "type": "biochemical", "details": "SRC-1 peptide recruitment, 3 hours at RT, read-out: EC50 in the PPARα receptor binding assay", "method": "(§1) The in vitro functional binding to the PPARα, PPARδ and PPARγ receptors is determined as follows:\n(§2) The functional binding assays for the PPARα, PPARδ and PPARγ receptors are a variation of the coactivator-dependent receptor ligand assay (CARLA) (see Krey et al., “Fatty Acids, Eicosanoids, and Hypolipidemic Agents Identified as Ligands of Peroxisome Proliferator-Activated Receptors by Coactivator-Dependent Receptor Ligand Assay”, Molecular Endocrinology, Vol. 11, pp. 779-791 (1997)). The present CARLA assays use a TR-FRET detection method previously reviewed (see Hemmila, “LANCE: Homogeneous Assay Plafform for HTS”, J. Biomol. Screening, Vol. 4, pp. 303-307 (1999); Mathis, “HTRF Technology”, J. Biomol. Screening, Vol. 4, pp. 309-313 (1999)). […] This brings the Eu-labeled anti-GST antibody and the strepavidin-labeled APC in close proximity, thereby facilitating fluorescence energy transfer. […] After mixing all components, the reaction mixture stands for 3 hours at RT before reading the TR-FRET (Time-Resolved Fluorescence Resonance Energy Transfer) signal on a Wallac Victor 2 plate reader (measuring the ratio of signals at […]). […]"}, "[2]": {"target": "T2, hPPARγ ligand binding domain (GST-hPPARγ LBD) (Homo sapiens, UniProt P37231)", "T2 construct": "GST-hPPARγ LBD (amino acids 175-476); made in house; host or cells: E. coli BL21(DE3), pGEX vector", "T2 sequence (P37231 175-476 isoform P37231-2)": "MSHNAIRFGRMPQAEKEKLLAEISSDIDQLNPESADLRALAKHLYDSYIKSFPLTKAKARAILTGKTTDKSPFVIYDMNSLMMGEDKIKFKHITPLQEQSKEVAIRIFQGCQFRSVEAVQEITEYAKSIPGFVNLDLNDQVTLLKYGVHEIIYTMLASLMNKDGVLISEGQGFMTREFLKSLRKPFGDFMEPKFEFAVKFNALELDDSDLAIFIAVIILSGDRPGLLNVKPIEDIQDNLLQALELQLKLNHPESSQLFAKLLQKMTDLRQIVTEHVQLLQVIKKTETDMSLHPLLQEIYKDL", "test": "PPARγ functional binding assay (CARLA, TR-FRET)", "type": "biochemical", "details": "SRC-1 peptide recruitment, 3 hours at RT, read-out: EC50 in the PPARγ receptor binding assay", "method": "as §1, §2"}}, "data": [{"smiles": "Cc1oc(-c2ccc(Cl)c(F)c2)nc1COc1cccc(C(C)(C)C(=O)N2CCC[C@@H]2C(=O)O)c1", "note": "[Example 9, (R)-1-(2-{3-[2-(4-Chloro-3-fluoro-phenyl)-5-methyl-oxazol-4-yl-methoxy]-phenyl}-2-methyl-propionyl)-pyrrolidine-2-carboxylic acid]", "values": [{"measurement": "EC50", "setting": "[1]", "value": "~3", "unit": "nM"}, {"measurement": "EC50", "setting": "[2]", "value": "~1800", "unit": "nM"}]}]}
